Legend:
[1] = Inhibition of cyclin dependent kinase
[2] = Inhibition of beta-arylsulfotransferase 4
[3] = Inhibition of inositol 1,4,5-triphosphate 3-kinase
[4] = target: Cyclin-dependent kinase 1/cyclin B1 (Homo sapiens, UniProt P06493); experiment: Inhibition of Cdk1/cyclin B
[5] = target: Cyclin-dependent kinase 2 (Homo sapiens, UniProt P24941); experiment: Inhibition of Cdk2/cyclin A

Sequence of Cyclin-dependent kinase 1/cyclin B1 (P06493 whole entry): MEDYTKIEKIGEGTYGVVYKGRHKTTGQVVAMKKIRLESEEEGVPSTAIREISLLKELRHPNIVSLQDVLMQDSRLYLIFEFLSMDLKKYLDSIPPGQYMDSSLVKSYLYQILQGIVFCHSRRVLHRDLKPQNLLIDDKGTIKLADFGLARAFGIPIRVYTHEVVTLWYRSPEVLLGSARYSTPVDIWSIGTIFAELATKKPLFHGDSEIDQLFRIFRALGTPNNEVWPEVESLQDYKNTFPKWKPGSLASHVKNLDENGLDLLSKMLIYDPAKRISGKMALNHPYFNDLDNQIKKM
Sequence of Cyclin-dependent kinase 1/cyclin B1 (P14635 whole entry, further chain): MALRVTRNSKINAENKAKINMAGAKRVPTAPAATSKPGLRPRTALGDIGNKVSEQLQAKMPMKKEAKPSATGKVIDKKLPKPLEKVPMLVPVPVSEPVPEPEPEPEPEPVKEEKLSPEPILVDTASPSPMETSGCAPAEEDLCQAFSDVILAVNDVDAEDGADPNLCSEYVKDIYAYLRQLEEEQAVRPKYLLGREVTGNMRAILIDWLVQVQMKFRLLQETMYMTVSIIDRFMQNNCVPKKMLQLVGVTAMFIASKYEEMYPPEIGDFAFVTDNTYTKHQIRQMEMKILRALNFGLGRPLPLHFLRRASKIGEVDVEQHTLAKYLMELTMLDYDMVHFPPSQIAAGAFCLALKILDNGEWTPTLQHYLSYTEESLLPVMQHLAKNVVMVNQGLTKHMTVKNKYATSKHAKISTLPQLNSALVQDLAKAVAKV

SMILES | IC50 [1] [µM] | also measured
CC[C@H](CO)Nc1nc(NCc2ccccc2)c2ncn(C(C)C)c2n1 [SELICICLIB] | 0.45 | 
Clc1nc(NCc2cccc3ccccc23)c2nc[nH]c2n1 |  | Ki [2]: 0.096 µM
CC[C@H](CO)Nc1nc(Nc2cc(Cl)cc(C(=O)O)c2)c2ncn(C(C)C)c2n1 | 0.004 | 
CC[C@H](CO)Nc1nc(Nc2cccc(Cl)c2)c2ncn(C(C)C)c2n1 | 0.004 | 
O=[N+]([O-])c1ccc(CNc2nc(NCc3cccc(C(F)(F)F)c3)nc3[nH]cnc23)cc1 |  | IC50 [3]: 10.2 µM; IC50 [4]: > 100 µM
Cn1cnc2c(NCc3ccccc3)nc(NCCO)nc21 [OLOMOUCINE] | 1000 | 
OCCn1cnc2c(NCc3ccccc3)nc(NCc3ccc(Br)cc3)nc21 |  | IC50 [5]: 20 µM

— ChEMBL document CHEMBL1149915, “Natural products as leads to potential drugs: an old process or the new hope for drug discovery?” (J Med Chem, 2008)
